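How tested: cells in 96-well plates exposed to compound for 48 hours at five concentrations. At the GI50, growth is halved.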 Activity calls are given as the source filed them. Cut-off read from the data, not from the text of the source: active = GI50 up to about 1.1 µM and inactive = higher.
Tests used:
Assay in all cases: DTP human tumour cell line panel, 48 h
RPMI-8226 = system: RPMI-8226
TK-10 = system: TK-10
HL-60 = system: HL-60
BT-549 = system: BT-549
DU-145 = system: DU-145
HCC 2998 = system: HCC 2998
NCI-H460 = system: NCI-H460
LOX IMVI = system: LOX IMVI
COLO 205 = system: COLO 205
UACC-62 = system: UACC-62
K562 = system: K562
OVCAR-5 = system: OVCAR-5
OVCAR-4 = system: OVCAR-4
UO-31 = system: UO-31
SK-MEL-28 = system: SK-MEL-28
SW-620 = system: SW-620
NCI/ADR-RES = system: NCI/ADR-RES
HOP-92 = system: HOP-92

Measured: GI50

C=CCc1ccccc1C1CC2(C(=O)OC)OC1C(C(=O)OC)=C2C(=O)OC (stereo not given)
inactive: RPMI-8226 > 10 µM | TK-10 > 10 µM | HL-60 > 10 µM | BT-549 > 10 µM | DU-145 > 10 µM | HCC 2998 > 10 µM | NCI-H460 > 10 µM | LOX IMVI > 10 µM | COLO 205 > 10 µM | UACC-62 > 10 µM | K562 > 10 µM | OVCAR-5 > 10 µM | OVCAR-4 > 10 µM | UO-31 > 10 µM | SK-MEL-28 > 10 µM | SW-620 > 10 µM | NCI/ADR-RES > 10 µM

CCC[C@@H]1C(=O)N=C(N)N1C(=O)OCc1ccccc1
inactive: RPMI-8226 > 100 µM | TK-10 > 100 µM | HL-60 > 100 µM | BT-549 > 100 µM | DU-145 > 100 µM | HCC 2998 > 100 µM | NCI-H460 > 100 µM | LOX IMVI > 100 µM | COLO 205 > 100 µM | UACC-62 > 100 µM | K562 > 100 µM | OVCAR-5 > 100 µM | OVCAR-4 > 100 µM | UO-31 > 100 µM | SK-MEL-28 > 100 µM | SW-620 > 100 µM | NCI/ADR-RES > 100 µM

COc1c(C)c(C/C=C(\C)CC/C=C(\C)CC/C=C(\C)CC/C=C(\C)CCC=C(C)C)c(OC)c(OC)c1OC
inactive: TK-10 24 µM | BT-549 85.1 µM | HOP-92 15.6 µM | DU-145 > 100 µM | NCI-H460 8.81 µM | LOX IMVI 17.1 µM | COLO 205 > 100 µM | UACC-62 > 100 µM | K562 24.4 µM | OVCAR-5 > 100 µM | OVCAR-4 19.9 µM | UO-31 21.6 µM | SW-620 97.7 µM | NCI/ADR-RES 25 µM

CC1=C(C(=O)OCCc2ccc([N+](=O)[O-])cc2)C(c2ccccc2[N+](=O)[O-])C(C(=O)OC(C)C)=C(C)N1 (stereo not given)
inactive: RPMI-8226 2.93 µM | TK-10 5.87 µM | HL-60 2.2 µM | BT-549 2.4 µM | DU-145 9.04 µM | HCC 2998 7.43 µM | NCI-H460 2.6 µM | LOX IMVI 4.14 µM | COLO 205 6.01 µM | UACC-62 4.29 µM | K562 3.39 µM | OVCAR-5 31.1 µM | OVCAR-4 37.9 µM | UO-31 4.2 µM | SK-MEL-28 7.57 µM | SW-620 6.89 µM | NCI/ADR-RES 3.19 µM

COC(=O)C1Cc2c(OC)ccc(OC)c2CC(C(=O)OC)C1=O (stereo not given)
inactive: RPMI-8226 > 100 µM | BT-549 > 100 µM | HOP-92 44 µM | DU-145 > 100 µM | HCC 2998 > 100 µM | NCI-H460 > 100 µM | COLO 205 > 100 µM | UACC-62 > 100 µM | K562 > 100 µM | OVCAR-5 > 100 µM | OVCAR-4 > 100 µM | UO-31 56 µM | SK-MEL-28 > 100 µM | SW-620 > 100 µM | NCI/ADR-RES > 100 µM
